Laboratory results as given in publication PMC8658963, “Synthesis and Evaluation of Trypanocidal Activity of Chromane-Type Compounds and Acetophenones” (Molecules, 2021).

Columns and labels:
in vitro = settings: human, Cytotoxicity (LC50)
Procedure: (§1) Cytotoxicity was evaluated in the human monocyte cell line U-937 (ATCC CRL-1593.2) at the exponential growth phase, adjusted at 1 × 10^5 cells/mL in complete RPMI-1640 medium (RPMI-1640 enriched with 200 mM L-glutamine, 10% inactivated fetal bovine serum (FBS) and 1% of a mixture of 10,000 IU/mL penicillin plus […] streptomycin). Then, in each well of a 96-well tissue culture plate were dispensed […] of cells plus […] of each compound (as one of six serials 1:2 dilution concentrations starting at 368 µM prepared in the same medium). Doxorubicin was included as an internal positive control under the same dilution pattern, starting at 18 µM whereas unexposed cells were used as negative controls. Afterward, cells were incubated for 72 h at 37 °C and 5% CO2. Cell viability was assayed by the MTT reduction assay according to the optical density (O.D) at 570 nm of the resulting reduction of formazan in a Varioskan Flash Multimode Reader (Thermo Scientific, Waltham, MA, USA). Nonspecific absorbance was corrected by subtracting the O.D of the blank solution that corresponded to complete RPMI-1640 medium. The assay was done in triplicate in at least two independent experiments.
(§2) The cytotoxicity was expressed as the medial lethal concentration (LC50), while the trypanocidal activity was defined as the median effective concentration (EC50) according to the percentage of inhibition of cells and parasites, respectively, as described elsewhere. Both LC50 and EC50 were calculated by the Probit analysis. […] Similarly, the trypanocidal activity was graded according to EC50 values, based on the hit criteria proposed by others into high when EC50 was lower than 10 μM, moderate when EC50 values were higher than 10 μM but lower than 50 μM and, low when EC50 was higher than 50 μM. The relation between cytotoxicity and trypanocidal activity was expressed as the index of selectivity (IS) that corresponded to the ratio when dividing the LC50 by the EC50.

[1] = tested on: human monocyte cell line U-937 (ATCC CRL-1593.2); assay: Cytotoxic activity, MTT reduction assay, 72 h
Procedure: as §1, §2

[2] = tested on: intracellular amastigotes of T. cruzi (Tulahuen strain transfected with the β-galactosidase gene); assay: Anti-trypanosomal activity, β-galactosidase readout in infected U937 macrophages, 72 h; type: cell-based, Trypanosoma cruzi; settings: T. cruzi intracellular amastigotes; result in words
Procedure: This activity was carried out in intracellular amastigotes of T. cruzi (Tulahuen strain transfected with the β-galactosidase gene. Briefly, metacyclic trypomastigotes were cultured at 26 °C for ten days in a modified NNN (Novy−McNeal−Nicolle) medium. U937 cells were seeded in 96-well tissue culture plates at a density of 2.5 × 10^4 cells in 100 μL of complete RPMI-1640 medium/well and exposed for 24 h to phorbol myristate acetate (1 ng/mL) to induce transformation of monocytes into macrophages. Cells were infected with trypomastigotes (5 parasites per cell) and incubated for 24 h at 37 °C, 5% CO2. Wells were washed twice with warm phosphate buffer solution (PBS) to remove noninternalized parasites, and then were added 100 μL of complete RPMI-1640 medium and 100 μL of each concentration of compound (50, 12.5, 3.125 μM). BNZ, at the same concentrations, was used as internal control for trypanocidal activity (positive control), and nontreated cells as controls for infection (negative control). After 72 h of incubation 37 °C, 5% CO2, the viability of intracellular amastigotes was determined by measuring the β-galactosidase activity. For this, 100 μM of Chlorophenol red-β-D- galactopyranoside (CPRG), and 0.1% Nonidet P-40 was added to each well and incubated for 4 h at 37 °C, […] protected from light. After that, measurement β-galactosidase activity was measured at 570 nm on a Varioskan, Thermo spectrophotometer. Nonspecific absorbance was subtracted from the measurement. Infected cells exposed to benznidazole were used as controls for anti-trypanosomal activity. Determinations were done in triplicate with at least two independent experiments.

CC(=O)c1cc(O)ccc1O [Compound 6, 1-(2,5-Dihydroxyphenyl)ethan-1-one]
CC50 at 72 h (in vitro): < 10 µM
Cytotoxicity level (grade) ([1]; U937 cells, graded by LC50): high (high when LC50 values were lower than 50 μM)
CC50 ([1]; human, 72 h): 6.3 µM
Trypanocidal activity compared with the control drug BNZ [2]: much better trypanocidal activity than the control drug BNZ
